In patent US12275732B2, “Cyclic compounds as receptor modulating therapeutics and methods and uses thereof” (Bionomics Limited, priority 2018, dated 2025) one finds Papp A→B data, which are given here for 19 compounds.

SMILES strings stand for the structures.

The series can be described thus: A2B permeability (Papp) in MDCK-MDR1 cell monolayers. In kind it is in vitro ADME. To be noted: dog, MDCK-MDR1 monolayer, apical to basolateral (A-B), 10 μM test compound, HBSS pH 7.4, duplicate. As to the method: Permeability Data for Compounds was Collected Using the Following Experimental Procedure:
MDCK-MDR1 cells obtained from the NIH (Rockville, Md., USA) are used between passage numbers 6-30. Cells are seeded onto Millipore Multiscreen Transwell plates at 3.4×10^5 cells/cm2. The cells are cultured in DMEM and media is changed on day 3. On day 4 the permeability study is performed. Cell culture and assay incubations are carried out at 37° C. in an atmosphere of 5% CO2 with a relative humidity of 95%. On the day of the assay, the monolayers are prepared by rinsing both apical and basolateral surfaces twice with Hanks Balanced Salt Solution (HBSS) at the desired pH warmed to 37° C. Cells are then incubated with HBSS at the desired pH in both apical and basolateral compartments for 40 min to stabilise physiological parameters.
The dosing solutions are prepared by diluting test compound with assay buffer to give a final test compound concentration of 10 μM (final DMSO concentration of 1% v/v). The fluorescent integrity marker lucifer yellow is also included in the dosing solution. Analytical standards are prepared from test compound DMSO dilutions and transferred to buffer, maintaining a 1% v/v DMSO concentration.
Typical assay buffer is composed of supplemented HBSS pH 7.4 but a range of other buffers and pH values can be used.
For assessment of A-B permeability, HBSS is removed from the apical compartment and replaced with test compound dosing solution. The apical compartment insert is then placed into a companion plate containing fresh buffer (containing 1% v/v DMSO). For assessment of B-A permeability, HBSS is removed from the companion plate and replaced with test compound dosing solution. Fresh buffer (containing 1% v/v DMSO) is added to the apical compartment insert, which is then placed into the companion plate.
At 60 min the apical compartment inserts and the companion plates are separated and apical and basolateral samples diluted for analysis.
Test compound permeability is assessed in duplicate. Compounds of known permeability characteristics are run as controls on each assay plate.
Test and control compounds are quantified by LC-MS/MS cassette analysis using a 7-point calibration with appropriate dilution of the samples. Cyprotex generic analytical conditions are used. The starting concentration (CO) is determined from the dosing solution and the experimental recovery calculated from CO and both apical and basolateral compartment concentrations.
The integrity of the monolayer throughout the experiment is checked by monitoring lucifer yellow permeation using fluorimetric analysis. Lucifer yellow permeation is high if monolayers have been damaged. If a lucifer yellow Papp value is above a pre-defined threshold in one well, but the derived Papp result for test compound or marker compound in that well is qualitatively similar to that determined in the remaining replicate well (within the lucifer yellow threshold) then, based upon the scientific judgment of the responsible scientist, the cell monolayer may be considered acceptable. If this is not the case, then the result from the affected monolayer is excluded and an n=1 result is reported, or the compound may be retested. If lucifer yellow Papp values are above the threshold in both replicate wells for a test compound, the compound is re-tested. If this re-occurs upon repeat in both wells then toxicity or inherent fluorescence of the test compound is assumed. No further experiments are performed in this instance.
The permeability coefficient (Papp) for each compound is calculated from the following equation: […]
Where dQ/dt is the rate of permeation of the drug across the cells, CO is the donor compartment concentration at time zero and A is the area of the cell monolayer. C0 is obtained from analysis of the dosing solution.
Turning to `CCn1cc(C(=O)N2CC3CCC(C2)O3)c(=O)c2cc(OC3Cc4ccccc4C3)nnc21` [Example 63, 8-Ethyl-3-indan-2-yloxy-6-(8-oxa-3-azabicyclo[3.2.1]octane-3-carbonyl)pyrido[2,3-c]pyridazin-5-one], the Papp A→B – broadly, the apparent permeability from the apical to the basolateral side of a cell layer – at 60 min, 10 μM came to 1.55 ×10⁻⁶ cm/s. The compound `CCn1cc(C(=O)N2CCOCC2)c(=O)c2cc(OC3Cc4ccccc4C3)ncc21` [Example 26, 1-Ethyl-6-indan-2-yloxy-3-(morpholine-4-carbonyl)-1,7-naphthyridin-4-one] returned a Papp A→B at 60 min, 10 μM of 1.56 ×10⁻⁶ cm/s. As to `CCn1cc(C(=O)N2[C@H](C)COC[C@H]2C)c(=O)c2cc(OC3Cc4ccccc4C3)cnc21` [Example 11, 3-[(3R,5R)-3,5-dimethylmorpholine-4-carbonyl]-1-ethyl-6-indan-2-yloxy-1,8-naphthyridin-4-one], the Papp A→B at 60 min, 10 μM is 3.83 ×10⁻⁶ cm/s. Regarding `CCn1cc(C(=O)N2CCOCC2)c(=O)c2cc(OC3Cc4ccccc4C3)nnc21` [Example 52, 8-Ethyl-3-indan-2-yloxy-6-(morpholine-4-carbonyl)pyrido[2,3-c]pyridazin-5-one], the Papp A→B at 60 min, 10 μM worked out at 4.78 ×10⁻⁶ cm/s.

Take `CCn1cc(C(=O)N2C[C@H](C)O[C@@H](C)C2)c(=O)c2cc(OC3Cc4ccccc4C3)cnc21` [Example 6, 3-[(2S,6S)-2,6-dimethylmorpholine-4-carbonyl]-1-ethyl-6-indan-2-yloxy-1,8-naphthyridin-4-one]: the Papp A→B at 60 min, 10 μM stood at 1.7 ×10⁻⁶ cm/s. `CCn1cc(C(=O)N2C[C@@H](C)O[C@H](C)C2)c(=O)c2cc(OC3Cc4ccccc4C3)cnc21` [Example 7, 3-[(2R,6R)-2,6-dimethylmorpholine-4-carbonyl]-1-ethyl-6-indan-2-yloxy-1,8-naphthyridin-4-one]: the Papp A→B at 60 min, 10 μM is 1.79 ×10⁻⁶ cm/s. As to `CCn1cc(C(=O)N2C[C@@H](C)O[C@@H](C)C2)c(=O)c2cc(OC3Cc4ccccc4C3)cnc21` [Example 5, 3-[(2R,6S)-2,6-dimethylmorpholine-4-carbonyl]-1-ethyl-6-indan-2-yloxy-1,8-naphthyridin-4-one], the Papp A→B at 60 min, 10 μM stood at 3.41 ×10⁻⁶ cm/s.

With `CCn1cc(C(=O)N2C3CCC2COC3)c(=O)c2cc(OC3Cc4ccccc4C3)cnc21` [Example 18, 1-Ethyl-6-indan-2-yloxy-3-(3-oxa-8-azabicyclo[3.2.1]octane-8-carbonyl)-1,8-naphthyridin-4-one], the Papp A→B at 60 min, 10 μM is 1.41 ×10⁻⁶ cm/s. Under `CCn1cc(C(=O)N2CC3CCC(C2)O3)c(=O)c2cc(OC3Cc4ccccc4C3)cnc21` [Example 19, 1-Ethyl-6-indan-2-yloxy-3-(8-oxa-3-azabicyclo[3.2.1]octane-3-carbonyl)-1,8-naphthyridin-4-one] stands 1.79 ×10⁻⁶ cm/s; under `CCn1cc(C(=O)N2[C@H](C)COC[C@@H]2C)c(=O)c2cc(OC3Cc4ccccc4C3)cnc21` [Example 10, 3-[(3R,5S)-3,5-dimethylmorpholine-4-carbonyl]-1-ethyl-6-indan-2-yloxy-1,8-naphthyridin-4-one], 1.99 ×10⁻⁶ cm/s; under `CCn1cc(C(=O)N2C3COCC2C3)c(=O)c2cc(OC3Cc4ccccc4C3)cnc21` [Example 16, 1-Ethyl-6-indan-2-yloxy-3-(3-oxa-6-azabicyclo[3.1.1]heptane-6-carbonyl)-1,8-naphthyridin-4-one], 2.06 ×10⁻⁶ cm/s. For `CCn1cc(C(=O)N2C[C@H]3C[C@@H]2CO3)c(=O)c2cc(OC3Cc4ccccc4C3)cnc21` [Example 17, 1-Ethyl-6-indan-2-yloxy-3-[(1R,4R)-2-oxa-5-azabicyclo[2.2.1]heptane-5-carbonyl]-1,8-naphthyridin-4-one], the Papp A→B at 60 min, 10 μM came to 0.87 ×10⁻⁶ cm/s. Compound `CCn1cc(C(=O)N2CC3COCC(C3)C2)c(=O)c2cc(OC3Cc4ccccc4C3)nnc21` [Example 65, 8-Ethyl-3-indan-2-yloxy-6-(3-oxa-7-azabicyclo[3.3.1]nonane-7-carbonyl)pyrido[2,3-c]pyridazin-5-one] displayed a Papp A→B at 60 min, 10 μM of 0.98 ×10⁻⁶ cm/s. Regarding `CCn1cc(C(=O)N2CCOC(C)(C)C2)c(=O)c2cc(OC3Cc4ccccc4C3)cnc21` [Example 4, 3-(2,2-dimethylmorpholine-4-carbonyl)-1-ethyl-6-indan-2-yloxy-1,8-naphthyridin-4-one], the Papp A→B at 60 min, 10 μM came out at 1.26 ×10⁻⁶ cm/s. The compound `CCn1cc(C(=O)N2CC3(CCOCC3)C2)c(=O)c2cc(OC3Cc4ccccc4C3)cnc21` [Example 23, 1-Ethyl-6-indan-2-yloxy-3-(7-oxa-2-azaspiro[3.5]nonane-2-carbonyl)-1,8-naphthyridin-4-one] gave a Papp A→B at 60 min, 10 μM of 1.24 ×10⁻⁶ cm/s. This Papp A→B at 60 min, 10 μM and that of the compound before are within 1.5-fold of each other.

For the compound `CCn1cc(C(=O)N2CC(C)(C)OC(C)(C)C2)c(=O)c2cc(OC3Cc4ccccc4C3)cnc21` [Example 8, 1-Ethyl-6-indan-2-yloxy-3-(2,2,6,6-tetramethylmorpholine-4-carbonyl)-1,8-naphthyridin-4-one], the Papp A→B at 60 min, 10 μM turned out to be 2.65 ×10⁻⁶ cm/s. For the compound `CCn1cc(C(=O)N2CCO[C@H](C)C2)c(=O)c2cc(OC3Cc4ccccc4C3)cnc21` [Example 2, 1-Ethyl-6-indan-2-yloxy-3-[(2R)-2-methylmorpholine-4-carbonyl]-1,8-naphthyridin-4-one], the Papp A→B at 60 min, 10 μM amounted to 2.56 ×10⁻⁶ cm/s.

In the case of `CCn1cc(C(=O)N2C3CCCC2COC3)c(=O)c2cc(OC3Cc4ccccc4C3)cnc21` [Example 20, 1-Ethyl-6-indan-2-yloxy-3-(3-oxa-9-azabicyclo[3.3.1]nonane-9-carbonyl)-1,8-naphthyridin-4-one], the Papp A→B at 60 min, 10 μM was 2.01 ×10⁻⁶ cm/s. The compound `CCn1cc(C(=O)N2CCOCC2)c(=O)c2cc(OC3Cc4ccccc4C3)cnc21` [Example 1, 1-Ethyl-6-indan-2-yloxy-3-(morpholine-4-carbonyl)-1,8-naphthyridin-4-one] showed a Papp A→B at 60 min, 10 μM of 2.19 ×10⁻⁶ cm/s.
